Results published in ChEMBL document CHEMBL1201862, “PubChem BioAssay data set” (2004).
Activity calls are given as the source filed them.

How the values were obtained:
[1] = test system: Streptococcus sp. 'group A'; assay: growth inhibition of control SK(-) GAS strain, dose response, counter-screen for streptokinase expression inhibitor project, luminescence, kanamycin, BacTiterGlo, confirmation (AID 1900); format: functional, organism-based
Streptokinase A = target: T1, Streptokinase A (Streptococcus pyogenes serotype M1, UniProt P10520); assay: S. pyogenes streptokinase expression inhibitors, potency, dose response, plasminogen activation absorbance, OD405 (AID 1914); format: functional, Streptococcus pyogenes M1 GAS;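 also: secreted streptokinase activity via plasminogen activation per viability signal from cell pellet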
T1 sequence (P10520 whole entry): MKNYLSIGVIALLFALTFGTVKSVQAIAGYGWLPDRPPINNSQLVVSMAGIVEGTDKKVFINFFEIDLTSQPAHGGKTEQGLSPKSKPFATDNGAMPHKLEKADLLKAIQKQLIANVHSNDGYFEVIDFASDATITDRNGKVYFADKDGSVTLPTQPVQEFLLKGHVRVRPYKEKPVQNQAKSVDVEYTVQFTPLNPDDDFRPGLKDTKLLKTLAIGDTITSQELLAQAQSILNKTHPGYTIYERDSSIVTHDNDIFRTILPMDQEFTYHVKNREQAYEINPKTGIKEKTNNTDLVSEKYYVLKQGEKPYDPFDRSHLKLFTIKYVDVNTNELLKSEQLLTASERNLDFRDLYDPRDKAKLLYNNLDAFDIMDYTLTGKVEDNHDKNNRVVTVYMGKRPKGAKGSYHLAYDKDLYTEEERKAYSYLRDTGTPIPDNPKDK

[2] = target: T2, G-protein coupled receptor 55 (Homo sapiens, UniProt Q9Y2T6); assay: GPR55 antagonists blocking LPI-driven arrestin recruitment, primary screen, imaging, U2OS, beta-arrestin-GFP, LPI agonist (AID 2013); format: functional;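 also: antagonist potency measured as reduced agonist-driven arrestin aggregation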
T2 sequence (Q9Y2T6 whole entry): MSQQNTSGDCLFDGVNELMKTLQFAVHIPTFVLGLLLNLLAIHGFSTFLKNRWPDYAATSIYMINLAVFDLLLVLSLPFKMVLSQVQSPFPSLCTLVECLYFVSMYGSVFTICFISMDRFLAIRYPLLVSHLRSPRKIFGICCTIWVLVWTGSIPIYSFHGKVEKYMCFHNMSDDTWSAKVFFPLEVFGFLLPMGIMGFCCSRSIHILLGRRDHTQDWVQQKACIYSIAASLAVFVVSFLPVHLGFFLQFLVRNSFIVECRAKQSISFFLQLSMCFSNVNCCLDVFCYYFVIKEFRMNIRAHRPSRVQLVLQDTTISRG

Streptococcus = assay: Group A Streptococcus viability loss, dose response, counter-screen for streptokinase expression inhibitor project, luminescence, BacTiterGlo (AID 1915); format: functional, organism-based;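 also: potency for reduction of bacterial viability or growth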
Cannabinoid receptor 1 [3] = target: T3, Cannabinoid receptor 1 (Homo sapiens, UniProt P21554); assay: SAR analysis of antagonists of the Cannabinoid Receptor 1 using an Image-Based Assay - Set 2. [Related pubchem assays (depositor defined):AID2013, AID2026]; format: functional
T3 sequence (P21554 whole entry): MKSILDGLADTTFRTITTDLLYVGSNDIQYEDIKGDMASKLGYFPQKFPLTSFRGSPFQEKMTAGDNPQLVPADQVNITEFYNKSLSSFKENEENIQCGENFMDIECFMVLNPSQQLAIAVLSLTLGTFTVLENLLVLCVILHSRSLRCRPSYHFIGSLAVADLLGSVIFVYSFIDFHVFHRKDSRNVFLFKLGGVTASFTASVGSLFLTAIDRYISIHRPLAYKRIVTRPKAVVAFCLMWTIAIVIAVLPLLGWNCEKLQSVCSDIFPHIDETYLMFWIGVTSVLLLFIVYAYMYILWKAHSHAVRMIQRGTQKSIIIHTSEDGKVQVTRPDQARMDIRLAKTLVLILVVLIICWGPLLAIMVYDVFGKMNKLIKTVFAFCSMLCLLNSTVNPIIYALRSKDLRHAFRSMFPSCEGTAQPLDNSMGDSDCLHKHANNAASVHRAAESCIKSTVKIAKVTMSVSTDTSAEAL

[4] = target: T4, G-protein coupled receptor 35 (Homo sapiens, UniProt Q9HC97); assay: SAR analysis of Agonists of the GPR35 Receptor using an Image-Based Assay - Set 2. [Related pubchem assays (depositor defined):AID2013, AID2026]; format: functional
T4 sequence (Q9HC97 whole entry): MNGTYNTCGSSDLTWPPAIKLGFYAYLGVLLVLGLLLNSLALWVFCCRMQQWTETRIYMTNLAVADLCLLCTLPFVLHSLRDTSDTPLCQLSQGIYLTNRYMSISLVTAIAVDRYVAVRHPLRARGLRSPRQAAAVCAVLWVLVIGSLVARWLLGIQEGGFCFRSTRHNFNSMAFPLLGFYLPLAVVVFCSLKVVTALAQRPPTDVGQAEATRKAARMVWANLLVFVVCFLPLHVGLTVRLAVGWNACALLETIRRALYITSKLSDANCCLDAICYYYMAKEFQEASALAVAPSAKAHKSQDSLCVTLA

Cannabinoid receptor 2 [5] = target: T5, Cannabinoid receptor 2 (Homo sapiens, UniProt P34972); assay: SAR analysis of antagonists of the Cannabinoid Receptor 2 using an Image-Based Assay. [Related pubchem assays (depositor defined):AID2013, AID2026]; format: functional
T5 sequence (P34972 whole entry): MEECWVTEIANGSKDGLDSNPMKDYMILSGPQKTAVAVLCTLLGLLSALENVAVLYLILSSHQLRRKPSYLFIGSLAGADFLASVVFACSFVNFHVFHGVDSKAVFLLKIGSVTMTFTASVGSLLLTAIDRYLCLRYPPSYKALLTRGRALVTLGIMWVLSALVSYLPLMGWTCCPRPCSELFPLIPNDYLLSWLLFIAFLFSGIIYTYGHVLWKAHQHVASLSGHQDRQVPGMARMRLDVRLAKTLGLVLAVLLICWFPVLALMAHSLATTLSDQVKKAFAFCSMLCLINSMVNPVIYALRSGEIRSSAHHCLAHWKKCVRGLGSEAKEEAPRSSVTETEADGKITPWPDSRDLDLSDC

[6] = target: T6, Short transient receptor potential channel 4 (Mus musculus, UniProt Q9QUQ5); assay: mouse TRPC4 channel inhibitors, dose response, cell-based, HEK293 TRPC4/mu-opioid, Fluo-4 calcium (AID 434942); format: functional;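 also: potency of inhibitors blocking the TRPC4 calcium response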
T6 sequence (Q9QUQ5 whole entry): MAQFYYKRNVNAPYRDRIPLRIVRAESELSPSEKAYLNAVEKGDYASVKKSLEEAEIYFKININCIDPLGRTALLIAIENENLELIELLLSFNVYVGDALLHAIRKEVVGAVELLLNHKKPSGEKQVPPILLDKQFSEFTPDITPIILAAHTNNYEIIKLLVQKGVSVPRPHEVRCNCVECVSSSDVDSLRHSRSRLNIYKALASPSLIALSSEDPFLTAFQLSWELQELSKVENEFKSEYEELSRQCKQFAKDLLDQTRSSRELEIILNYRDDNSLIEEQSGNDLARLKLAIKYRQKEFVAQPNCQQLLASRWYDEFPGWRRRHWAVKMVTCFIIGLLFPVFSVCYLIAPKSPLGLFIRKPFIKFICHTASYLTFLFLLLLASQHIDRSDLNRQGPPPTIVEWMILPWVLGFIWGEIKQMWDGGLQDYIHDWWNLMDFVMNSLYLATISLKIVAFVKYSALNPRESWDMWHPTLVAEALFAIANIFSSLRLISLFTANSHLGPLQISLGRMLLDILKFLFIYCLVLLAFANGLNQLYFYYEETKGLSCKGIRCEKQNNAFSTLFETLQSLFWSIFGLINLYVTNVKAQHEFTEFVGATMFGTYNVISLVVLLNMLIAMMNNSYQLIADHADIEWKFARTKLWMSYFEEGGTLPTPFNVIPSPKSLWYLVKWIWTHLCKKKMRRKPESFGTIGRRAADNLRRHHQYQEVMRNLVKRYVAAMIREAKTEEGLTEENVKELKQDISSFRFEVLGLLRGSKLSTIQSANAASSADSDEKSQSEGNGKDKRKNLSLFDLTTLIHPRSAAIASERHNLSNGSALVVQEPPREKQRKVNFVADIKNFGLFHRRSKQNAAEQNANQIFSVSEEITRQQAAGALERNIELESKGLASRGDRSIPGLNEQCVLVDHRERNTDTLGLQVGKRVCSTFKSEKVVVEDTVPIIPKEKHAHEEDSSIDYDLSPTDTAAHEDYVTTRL

Cannabinoid receptor 1 [7] = target: T3, Cannabinoid receptor 1; assay: SAR analysis of agonists of the Cannabinoid Receptor 1 using an Image-Based Assay - Set 2. [Related pubchem assays (depositor defined):AID2013, AID2026]; format: functional
[8] = target: T4, G-protein coupled receptor 35; assay: SAR analysis of Antagonists of the GPR35 Receptor using an Image-Based Assay - Set 3. [Related pubchem assays (depositor defined):AID2013, AID2026]; format: functional
[9] = target: T2, G-protein coupled receptor 55; assay: GPR55 antagonist potency of analogs, SAR follow-up, imaging, U2OS, beta-arrestin-GFP, LPI agonist, set 2 (AID 2820); format: functional
Cannabinoid receptor 2 [10] = target: T5, Cannabinoid receptor 2; assay: SAR analysis of agonists of the Cannabinoid Receptor 2 using an Image-Based Assay. [Related pubchem assays (depositor defined):AID2013, AID2026]; format: functional

`COc1ccc(NC(=O)c2cnn3c(O)cc(C4CCN(C(=O)OC(C)(C)C)CC4)nc23)cc1Cl` was tested, and the EC50 [1] was 3.36 µM (active), the EC50 (Streptokinase A) was > 150 µM (not active) and the IC50 [2] was < 0.5 µM (active). The EC50 (Streptococcus) was 17.8 µM (active), the IC50 (Cannabinoid receptor 1 [3]) was > 32 µM (inactive) and the EC50 [4] was 0.506 µM (active). For the same compound, the IC50 (Cannabinoid receptor 2 [5]) was > 32 µM (inactive), the EC50 [6] was 1.33 µM (active) and the EC50 (Cannabinoid receptor 1 [7]) was > 32 µM (inactive). The IC50 [8] was 29.4 µM (inactive), the IC50 [9] was 0.422 µM (active) and the EC50 (Cannabinoid receptor 2 [10]) was > 32 µM (inactive).
